Data taken from PubChem BioAssay AID1963984 (Molecular Pharmacology Branch, DTP, NCI, 2024).

Tested on: 233499-124-R-J3-PDC spheroids with HUVEC/MSC, viability
Test: Anticancer human tumor 233499-124-R-J3-PDC patient-derived colon adenocarcinoma cell line growth inhibition [PI3K]
Details: for viability, T/C: stronger effect = lower value
Outline: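 Multi-cell spheroids combine tumor cells with HUVEC and human MSCs, treated with targeted agents alone or with inavolisib, alpelisib, duvelisib or copanlisib. Concentrations fall in half-log steps from at or near clinical Cmax, or from 10 microM where Cmax is unknown; viability read-out.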

[1] = curve of first compound, second compound 0.0316 µM
[2] = curve of first compound, second compound 0.1 µM
[3] = curve of first compound, second compound 0.316 µM
[4] = curve of first compound, second compound 1 µM
[5] = second compound 0.0316 µM, first compound 0.0316 µM
[6] = second compound 0.0316 µM, first compound 0.1 µM
[7] = second compound 0.0316 µM, first compound 0.316 µM
[8] = second compound 0.0316 µM, first compound 1 µM
[9] = second compound 0.0316 µM, first compound 3.16 µM
[10] = second compound 0.0316 µM, first compound 10 µM
[11] = second compound 0.1 µM, first compound 0.0316 µM
[12] = second compound 0.1 µM, first compound 0.1 µM
[13] = second compound 0.1 µM, first compound 0.316 µM
[14] = second compound 0.1 µM, first compound 1 µM
[15] = second compound 0.1 µM, first compound 3.16 µM
[16] = second compound 0.1 µM, first compound 10 µM
[17] = second compound 0.316 µM, first compound 0.0316 µM
[18] = second compound 0.316 µM, first compound 0.1 µM
[19] = second compound 0.316 µM, first compound 0.316 µM
[20] = second compound 0.316 µM, first compound 1 µM
[21] = second compound 0.316 µM, first compound 3.16 µM
[22] = second compound 0.316 µM, first compound 10 µM
[23] = second compound 1 µM, first compound 0.0316 µM
[24] = second compound 1 µM, first compound 0.1 µM
[25] = second compound 1 µM, first compound 0.316 µM
[26] = second compound 1 µM, first compound 1 µM
[27] = second compound 1 µM, first compound 3.16 µM
[28] = second compound 1 µM, first compound 10 µM
[29] = curve of first compound, second compound 0.00316 µM
[30] = curve of first compound, second compound 0.01 µM
[31] = second compound 0.00316 µM, first compound 0.0316 µM
[32] = second compound 0.00316 µM, first compound 0.1 µM
[33] = second compound 0.00316 µM, first compound 0.316 µM
[34] = second compound 0.00316 µM, first compound 1 µM
[35] = second compound 0.00316 µM, first compound 3.16 µM
[36] = second compound 0.00316 µM, first compound 10 µM
[37] = second compound 0.01 µM, first compound 0.0316 µM
[38] = second compound 0.01 µM, first compound 0.1 µM
[39] = second compound 0.01 µM, first compound 0.316 µM
[40] = second compound 0.01 µM, first compound 1 µM
[41] = second compound 0.01 µM, first compound 3.16 µM
[42] = second compound 0.01 µM, first compound 10 µM
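Also: spheroids exposed to agents for seven days before readout.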
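For viability, T/C in this document: percent viability relative to DMSO vehicle control taken as 100%.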

CCCS(=O)(=O)Nc1ccc(F)c(C(=O)c2c[nH]c3ncc(-c4ccc(Cl)cc4)cc23)c1F + CC(Nc1ncnc2nc[nH]c12)c1cc2cccc(Cl)c2c(=O)n1-c1ccccc1
IC50 [1]: 4.97 µM | IC50 [2]: 5.13 µM | IC50 [3]: 5.49 µM | IC50 [4]: 4.61 µM | IC50 (curve of first compound, second compound 3.16 µM): 4.58 µM | IC50 (curve of first compound, second compound 10 µM): 4.4 µM | viability, T/C [5]: 80.7% | viability, T/C [6]: 77.9% | viability, T/C [7]: 97.8% | viability, T/C [8]: 98.2% | viability, T/C [9]: 80% | viability, T/C [10]: 3.53% | viability, T/C [11]: 97.1% | viability, T/C [12]: 100% | viability, T/C [13]: 90.6% | viability, T/C [14]: 97.6% | viability, T/C [15]: 82% | viability, T/C [16]: 5.89% | viability, T/C [17]: 81.3% | viability, T/C [18]: 103% | viability, T/C [19]: 93.6% | viability, T/C [20]: 94.6% | viability, T/C [21]: 93.2% | viability, T/C [22]: 3.19% | viability, T/C [23]: 90.3% | viability, T/C [24]: 99.7% | viability, T/C [25]: 99.7% | viability, T/C [26]: 96.5% | viability, T/C [27]: 71.8% | viability, T/C [28]: 5.59% | viability, T/C (second compound 3.16 µM, first compound 0.0316 µM): 94.7% | viability, T/C (second compound 3.16 µM, first compound 0.1 µM): 99.2% | viability, T/C (second compound 3.16 µM, first compound 0.316 µM): 90.6% | viability, T/C (second compound 3.16 µM, first compound 1 µM): 85.7% | viability, T/C (second compound 3.16 µM, first compound 3.16 µM): 74.3% | viability, T/C (second compound 3.16 µM, first compound 10 µM): 2.26% | viability, T/C (second compound 10 µM, first compound 0.0316 µM): 78.5% | viability, T/C (second compound 10 µM, first compound 0.1 µM): 92.2% | viability, T/C (second compound 10 µM, first compound 0.316 µM): 92.1% | viability, T/C (second compound 10 µM, first compound 1 µM): 74.8% | viability, T/C (second compound 10 µM, first compound 3.16 µM): 70.6% | viability, T/C (second compound 10 µM, first compound 10 µM): 3.63%

CC1(C)CCC(Nc2ncc(C(F)(F)F)c(-c3c[nH]c4c(P(C)(C)=O)c(C#N)ccc34)n2)CN1 (stereo unspecified) + COc1c(OCCCN2CCOCC2)ccc2c3n(c(=NC(=O)c4cnc(N)nc4)nc12)CCN3
IC50 [29]: 0.287 µM | IC50 [30]: 0.205 µM | IC50 [1]: 0.0567 µM | IC50 [2]: 0.102 µM | IC50 [3]: < 0.0316 µM | IC50 [4]: < 0.0316 µM | viability, T/C [31]: 64.2% | viability, T/C [32]: 73.2% | viability, T/C [33]: 42% | viability, T/C [34]: 29.5% | viability, T/C [35]: 29.5% | viability, T/C [36]: 5.37% | viability, T/C [37]: 56.5% | viability, T/C [38]: 67.6% | viability, T/C [39]: 42.7% | viability, T/C [40]: 15.7% | viability, T/C [41]: 25.4% | viability, T/C [42]: 5.25% | viability, T/C [5]: 58.4% | viability, T/C [6]: 43.3% | viability, T/C [7]: 29.8% | viability, T/C [8]: 29.7% | viability, T/C [9]: 37.7% | viability, T/C [10]: 2.18% | viability, T/C [11]: 58.3% | viability, T/C [12]: 53.9% | viability, T/C [13]: 37.2% | viability, T/C [14]: 26.1% | viability, T/C [15]: 23.7% | viability, T/C [16]: 2.55% | viability, T/C [17]: 33.5% | viability, T/C [18]: 29.4% | viability, T/C [19]: 24.3% | viability, T/C [20]: 14.7% | viability, T/C [21]: 16.3% | viability, T/C [22]: 1.17% | viability, T/C [23]: 8.22% | viability, T/C [24]: 10.7% | viability, T/C [25]: 8.48% | viability, T/C [26]: 14.2% | viability, T/C [27]: 6.77% | viability, T/C [28]: 1.03%

CC(Nc1ccc2c(c1)OCCn1cc(N3C(=O)OCC3C(F)F)nc1-2)C(N)=O (stereo unspecified)
viability, T/C (compound 0.1 µM): 80.2% [middle of 8 runs] | viability, T/C (compound 1 µM): 71.6% [middle of 8 runs] | IC50 (compound alone, run of 05/08/2023): > 1 µM

CC(=O)c1c(C)c2cnc(Nc3ccc(N4CCNCC4)cn3)nc2n(C2CCCC2)c1=O + COc1c(OCCCN2CCOCC2)ccc2c3n(c(=NC(=O)c4cnc(N)nc4)nc12)CCN3
IC50 [29]: > 0.1 µM | IC50 [30]: > 0.1 µM | IC50 [1]: > 0.1 µM | IC50 [2]: > 0.1 µM | IC50 [3]: < 0.000316 µM | IC50 [4]: < 0.000316 µM | viability, T/C (second compound 0.00316 µM, first compound 0.000316 µM): 106% | viability, T/C (second compound 0.00316 µM, first compound 0.001 µM): 106% | viability, T/C (second compound 0.00316 µM, first compound 0.00316 µM): 121% | viability, T/C (second compound 0.00316 µM, first compound 0.01 µM): 106% | viability, T/C [31]: 76.5% | viability, T/C [32]: 61% | viability, T/C (second compound 0.01 µM, first compound 0.000316 µM): 86.5% | viability, T/C (second compound 0.01 µM, first compound 0.001 µM): 119% | viability, T/C (second compound 0.01 µM, first compound 0.00316 µM): 89.2% | viability, T/C (second compound 0.01 µM, first compound 0.01 µM): 89.3% | viability, T/C [37]: 83% | viability, T/C [38]: 75.7% | viability, T/C (second compound 0.0316 µM, first compound 0.000316 µM): 90% | viability, T/C (second compound 0.0316 µM, first compound 0.001 µM): 95.8% | viability, T/C (second compound 0.0316 µM, first compound 0.00316 µM): 94.4% | viability, T/C (second compound 0.0316 µM, first compound 0.01 µM): 86.8% | viability, T/C [5]: 86.2% | viability, T/C [6]: 86% | viability, T/C (second compound 0.1 µM, first compound 0.000316 µM): 56.3% | viability, T/C (second compound 0.1 µM, first compound 0.001 µM): 78.8% | viability, T/C (second compound 0.1 µM, first compound 0.00316 µM): 63.7% | viability, T/C (second compound 0.1 µM, first compound 0.01 µM): 73.2% | viability, T/C [11]: 61.6% | viability, T/C [12]: 62.4% | viability, T/C (second compound 0.316 µM, first compound 0.000316 µM): 28.7% | viability, T/C (second compound 0.316 µM, first compound 0.001 µM): 32.3% | viability, T/C (second compound 0.316 µM, first compound 0.00316 µM): 30.3% | viability, T/C (second compound 0.316 µM, first compound 0.01 µM): 31.8% | viability, T/C [17]: 27.5% | viability, T/C [18]: 31.2% | viability, T/C (second compound 1 µM, first compound 0.000316 µM): 13.7% | viability, T/C (second compound 1 µM, first compound 0.001 µM): 4.51% | viability, T/C (second compound 1 µM, first compound 0.00316 µM): 5.25% | viability, T/C (second compound 1 µM, first compound 0.01 µM): 12.8% | viability, T/C [23]: 10.7% | viability, T/C [24]: 10.2%

C=CC(=O)N1CCN(c2nc(=O)n(-c3c(C)ccnc3C(C)C)c3nc(-c4c(O)cccc4F)c(F)cc23)C(C)C1 (stereo unspecified) + CC(Nc1ccc2c(c1)OCCn1cc(N3C(=O)OCC3C(F)F)nc1-2)C(N)=O
IC50 [29]: > 10 µM | IC50 [30]: > 10 µM | IC50 [1]: > 10 µM | IC50 [2]: > 10 µM | IC50 [3]: > 10 µM | IC50 [4]: > 10 µM | viability, T/C [31]: 101% | viability, T/C [32]: 87.5% | viability, T/C [33]: 87.9% | viability, T/C [34]: 113% | viability, T/C [35]: 100% | viability, T/C [36]: 100% | viability, T/C [37]: 85.9% | viability, T/C [38]: 88.8% | viability, T/C [39]: 77.5% | viability, T/C [40]: 95.6% | viability, T/C [41]: 97.5% | viability, T/C [42]: 86.2% | viability, T/C [5]: 85.8% | viability, T/C [6]: 106% | viability, T/C [7]: 91.4% | viability, T/C [8]: 92.8% | viability, T/C [9]: 93.5% | viability, T/C [10]: 84.6% | viability, T/C [11]: 103% | viability, T/C [12]: 94.5% | viability, T/C [13]: 91.3% | viability, T/C [14]: 83% | viability, T/C [15]: 87% | viability, T/C [16]: 57.1% | viability, T/C [17]: 92.7% | viability, T/C [18]: 80.5% | viability, T/C [19]: 80.8% | viability, T/C [20]: 77.4% | viability, T/C [21]: 71% | viability, T/C [22]: 85.5% | viability, T/C [23]: 61% | viability, T/C [24]: 67.7% | viability, T/C [25]: 44.3% | viability, T/C [26]: 56.3% | viability, T/C [27]: 63.6% | viability, T/C [28]: 66.9%
